Measurements taken from PubChem BioAssay AID1259407 (Chemical Carcinogenesis Research Information System (CCRIS), 2018).
Calls of active or inactive are those of the source. How the calls were made is not given here.

System: CCRIS mutagenicity, Ames/micronucleus/aberration tests
Experiment: CCRIS mutagenicity studies
[1] = Test System: AMES SALMONELLA TYPHIMURIUM, Strain/Indicator: TA98, Metabolic Activation: NONE, Method: PREINCUBATION
[2] = Test System: AMES SALMONELLA TYPHIMURIUM, Strain/Indicator: TA100, Metabolic Activation: NONE, Method: PREINCUBATION
[3] = Test System: AMES SALMONELLA TYPHIMURIUM, Strain/Indicator: TA98, Metabolic Activation: NONE, Method: STANDARD PLATE
[4] = Test System: AMES SALMONELLA TYPHIMURIUM, Strain/Indicator: TA100, Metabolic Activation: NONE, Method: STANDARD PLATE

For C/C=C/C=O, the mutagenic call (End Point: IN VITRO CHROMOSOMAL ABERRATIONS, Test System: CHINESE HAMSTER OVARY CELLS, Metabolic Activation: NONE) was “active; positive”, the mutagenic call (End Point: IN VITRO CHROMOSOMAL ABERRATIONS, Test System: CHINESE HAMSTER OVARY CELLS, Metabolic Activation: RAT, LIVER, S-9, AROCLOR 1254) was “active; positive” and the mutagenic call (End Point: IN VITRO CHROMOSOMAL ABERRATIONS, Test System: CHL CELLS, Metabolic Activation: RAT, LIVER, S-9, SODIUM PHENOBARBITAL AND 5,6-BENZOFLAVONE) was “active; positive (structural changes)”. For the same compound, the mutagenic call (End Point: In vivo chromosomal aberrations, Test System: Bone marrow, Species: Mouse, Strain/Sex: Swiss/ 3 males and 2 females per group, Route: Intraperitoneal) was “active; positive (statistically significant at all doses and durations) (structural aber”, the mutagenic call (End Point: In vivo chromosomal aberrations, Test System: Spermatocytes, Species: Mouse, Strain/Sex: Swiss/males, Route: Intraperitoneal) was “active; positive (dose-related) (autosomal univalents, x-y univalents, fragments or brea” and the mutagenic call (Test System: AMES SALMONELLA TYPHIMURIUM, Strain/Indicator: TA98, Metabolic Activation: NONE, Method: FLUCTUATION (MICROTITER)) was “active; positive”. For the same compound, the mutagenic call [1] was “active; positive”, the mutagenic call (Test System: AMES SALMONELLA TYPHIMURIUM, Strain/Indicator: TA98, Metabolic Activation: RAT LIVER S-9, PHENOBARBITAL AND BETA-NAPHTHOFLAVONE, Method: PREINCUBATION) was “active; positive” and the mutagenic call (Test System: AMES SALMONELLA TYPHIMURIUM, Strain/Indicator: TA100, Metabolic Activation: NONE, Method: MODIFIED LIQUID SUSPENSION) was “active; positive”. The mutagenic call [2] was “active; positive”, the mutagenic call (Test System: AMES SALMONELLA TYPHIMURIUM, Strain/Indicator: TA100, Metabolic Activation: NONE, Method: PREINCUBATION (THREEFOLD CELL DENSITY)) was “active; positive” and the mutagenic call (Test System: AMES SALMONELLA TYPHIMURIUM, Strain/Indicator: TA100, Metabolic Activation: RAT LIVER S-9, PHENOBARBITAL AND BETA-NAPHTHOFLAVONE, Method: PREINCUBATION) was “active; positive”. The mutagenic call (Test System: AMES SALMONELLA TYPHIMURIUM, Strain/Indicator: TA100, Metabolic Activation: RAT, LIVER, S-9, AROCLOR 1254, Method: MODIFIED LIQUID SUSPENSION) was “active; positive”, the mutagenic call (Test System: AMES SALMONELLA TYPHIMURIUM, Strain/Indicator: TA100, Metabolic Activation: RAT, LIVER, S-9, AROCLOR 1254, Method: PREINCUBATION (THREEFOLD CELL DENSITY)) was “active; positive” and the mutagenic call (Test System: AMES SALMONELLA TYPHIMURIUM, Strain/Indicator: TA104, Metabolic Activation: NONE, Method: PREINCUBATION) was “active; positive”. The mutagenic call (Test System: AMES SALMONELLA TYPHIMURIUM, Strain/Indicator: TA1535, Metabolic Activation: NONE, Method: PREINCUBATION) was “inactive; negative”, the mutagenic call (Test System: AMES SALMONELLA TYPHIMURIUM, Strain/Indicator: TA1535, Metabolic Activation: RAT LIVER S-9, PHENOBARBITAL AND BETA-NAPHTHOFLAVONE, Method: PREINCUBATION) was “inactive; negative” and the mutagenic call (Test System: AMES SALMONELLA TYPHIMURIUM, Strain/Indicator: TA1537, Metabolic Activation: NONE, Method: FLUCTUATION (MICROTITER)) was “inactive; negative”. For the same compound, the mutagenic call (Test System: AMES SALMONELLA TYPHIMURIUM, Strain/Indicator: TA1537, Metabolic Activation: RAT LIVER S-9, PHENOBARBITAL AND BETA-NAPHTHOFLAVONE, Method: PREINCUBATION) was “inactive; negative”, the mutagenic call (Test System: AMES SALMONELLA TYPHIMURIUM, Strain/Indicator: TA7001, Metabolic Activation: NONE, Method: FLUCTUATION (MICROTITER)) was “inactive; negative” and the mutagenic call (Test System: AMES SALMONELLA TYPHIMURIUM, Strain/Indicator: TA7002, Metabolic Activation: NONE, Method: FLUCTUATION (MICROTITER)) was “active; positive”. The mutagenic call (Test System: AMES SALMONELLA TYPHIMURIUM, Strain/Indicator: TA7003, Metabolic Activation: NONE, Method: FLUCTUATION (MICROTITER)) was “inactive; negative”, the mutagenic call (Test System: AMES SALMONELLA TYPHIMURIUM, Strain/Indicator: TA7004, Metabolic Activation: NONE, Method: FLUCTUATION (MICROTITER)) was “active; positive” and the mutagenic call (Test System: AMES SALMONELLA TYPHIMURIUM, Strain/Indicator: TA7005, Metabolic Activation: NONE, Method: FLUCTUATION (MICROTITER)) was “active; positive”. For the same compound, the mutagenic call (Test System: AMES SALMONELLA TYPHIMURIUM, Strain/Indicator: TA7006, Metabolic Activation: NONE, Method: FLUCTUATION (MICROTITER)) was “active; positive”, the mutagenic call (Test System: CHINESE HAMSTER OVARY, Strain/Indicator: AS52/6-THIOGUANINE, Metabolic Activation: NONE, Method: STANDARD PLATE) was “inactive; negative” and the mutagenic call (Test System: E.COLI, Strain/Indicator: WP2UVRA, Metabolic Activation: NONE, Method: PREINCUBATION) was “inactive; negative”. The mutagenic call (Test System: E.COLI, Strain/Indicator: WP2UVRA, Metabolic Activation: RAT LIVER S-9, PHENOBARBITAL AND BETA-NAPHTHOFLAVONE, Method: PREINCUBATION) was “inactive; negative”.
For NCCN1CCNCC1, the mutagenic call [1] was “inactive; negative”, the mutagenic call [3] was “inactive; negative” and the mutagenic call (Test System: AMES SALMONELLA TYPHIMURIUM, Strain/Indicator: TA98, Metabolic Activation: RAT, LIVER, S-9, AROCLOR 1254, Method: STANDARD PLATE) was “inactive; negative”. The mutagenic call (Test System: AMES SALMONELLA TYPHIMURIUM, Strain/Indicator: TA98, Metabolic Activation: RAT, LIVER, S-9, PCB, Method: PREINCUBATION) was “inactive; negative”, the mutagenic call [2] was “inactive; negative” and the mutagenic call [4] was “inactive; negative”. The mutagenic call (Test System: AMES SALMONELLA TYPHIMURIUM, Strain/Indicator: TA100, Metabolic Activation: RAT, LIVER, S-9, AROCLOR 1254, Method: STANDARD PLATE) was “inactive; negative”, the mutagenic call (Test System: AMES SALMONELLA TYPHIMURIUM, Strain/Indicator: TA100, Metabolic Activation: RAT, LIVER, S-9, PCB, Method: PREINCUBATION) was “inactive; negative” and the mutagenic call (Test System: AMES SALMONELLA TYPHIMURIUM, Strain/Indicator: TA1535, Metabolic Activation: NONE, Method: STANDARD PLATE) was “inactive; negative”. The mutagenic call (Test System: AMES SALMONELLA TYPHIMURIUM, Strain/Indicator: TA1535, Metabolic Activation: RAT, LIVER, S-9, AROCLOR 1254, Method: STANDARD PLATE) was “inactive; negative”, the mutagenic call (Test System: AMES SALMONELLA TYPHIMURIUM, Strain/Indicator: TA1537, Metabolic Activation: NONE, Method: STANDARD PLATE) was “inactive; negative” and the mutagenic call (Test System: AMES SALMONELLA TYPHIMURIUM, Strain/Indicator: TA1537, Metabolic Activation: RAT, LIVER, S-9, AROCLOR 1254, Method: STANDARD PLATE) was “inactive; negative”. For the same compound, the mutagenic call (Test System: AMES SALMONELLA TYPHIMURIUM, Strain/Indicator: TA1538, Metabolic Activation: NONE, Method: STANDARD PLATE) was “inactive; negative”, the mutagenic call (Test System: AMES SALMONELLA TYPHIMURIUM, Strain/Indicator: TA1538, Metabolic Activation: RAT, LIVER, S-9, AROCLOR 1254, Method: STANDARD PLATE) was “inactive; negative” and the mutagenic call (Test System: UDS RAT HEPATOCYTES, Strain/Indicator: THY INCORP, Metabolic Activation: NONE, Method: SCINTILLATION SPECTROMETRY) was “inactive; negative”.
For O=C(O)c1cn(-c2ccc(F)cc2)c2cc(N3CCNCC3)c(F)cc2c1=O, the mutagenic call (Test System: AMES SALMONELLA TYPHIMURIUM, Strain/Indicator: TA97, Metabolic Activation: NONE, Method: STANDARD PLATE) was “inactive; negative”, the mutagenic call (Test System: AMES SALMONELLA TYPHIMURIUM, Strain/Indicator: TA97, Metabolic Activation: S-9, Method: STANDARD PLATE) was “inactive; negative” and the mutagenic call [3] was “inactive; negative”. For the same compound, the mutagenic call (Test System: AMES SALMONELLA TYPHIMURIUM, Strain/Indicator: TA98, Metabolic Activation: S-9, Method: STANDARD PLATE) was “inactive; negative”, the mutagenic call [4] was “inactive; negative” and the mutagenic call (Test System: AMES SALMONELLA TYPHIMURIUM, Strain/Indicator: TA100, Metabolic Activation: S-9, Method: STANDARD PLATE) was “inactive; negative”. The mutagenic call (Test System: AMES SALMONELLA TYPHIMURIUM, Strain/Indicator: TA102, Metabolic Activation: NONE, Method: STANDARD PLATE) was “inactive; negative” and the mutagenic call (Test System: AMES SALMONELLA TYPHIMURIUM, Strain/Indicator: TA102, Metabolic Activation: S-9, Method: STANDARD PLATE) was “inactive; negative”.
